Laboratory results from patent US8178688B2, “Benzamidine derivatives, process for the preparation thereof and pharmaceutical composition comprising the same” (Dong Wha Pharmaceutical Co., Ltd., priority 2004, dated 2012).
Where two headings read alike, the source gives them in different places.

Assays:
[1] = test system: osteoclast differentiation; assay: Inhibitory effects on osteoclast differentiation (co-culture of bone marrow cells with osteoblast, TRAP staining); type: cell-based, mice; conditions: co-culture of bone marrow cells and osteoblast, 7 days, TRAP-positive osteoclasts versus controls; for inhibition at 1 µM: Mus musculus, Osteoclast, 168 h, read-out: % inhibitory activity on osteoclastogenesis
Outline: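 Bone marrow cells from 6–8-week male ddY mice co-cultured with neonatal ICR mouse calvarial osteoblasts in α-MEM/FBS with dexamethasone (10^−7M) and vitamin D3 (10^−8M) for 7 days, compound and medium renewed every 2–3 days. TRAP-positive cells with ≥3 nuclei counted; inhibition given as percent of control.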

ovariectomized ddY mouse = assay: Therapeutic effect in the ovariectomized osteoporetic mouse model (trabecular bone volume of the femur); type: in vivo, ddY mice; conditions: 50 mg/kg/day oral gavage for 4 weeks from 4 weeks after ovariectomy, salts (methansulfonic acid or HCl); for change in vivo at 50 mg/kg: Mus musculus, 672 h, read-out: Changes on TBV (% changes vs vehicle control)
Description: The therapeutic effects of each benzamidine derivates were evaluated on the ovariectomized ddY mouse. Benzamidine derivates were dosed from 4 weeks after operation for 4 weeks and the changes on the trabecular bone volume (TBV) of the femur were observed via histomorphometry.
Female ddY mice (6-wk old upon receipt, SLC, Japan) were used after acclimatization for 7 days. Animals were allocated 5 per polycarbonate cage in a temperature (20-25° C.) and humidity (30-35%) controlled room. Light:dark cycle was 12 hr:12 hr and feed (Samyang, Korea) and water were supplied free to access.
Salts of benzamidine derivates (Methansulfonic acid or HCl) were used for the test substances of this invention. Test substances are dissolved and/or suspended in injectable distilled water and administered at a dosage volume of 10 ml/kg by oral gavage. All test substances are dosed from 4 weeks after operation for 4 weeks at 50 mg/kg/day.
To induce estrogen-deficient osteoporosis, bilateral ovaries are removed and then closed by routine methods. Operation was conduct under Ketamine hydrochloride and xylazine hydrochloride anesthesia.
The left femur of each mouse were separated at sacrifice, and fixed in 10% neutral buffered formalin (NBF), then decalcified in decalcifying solution (24.4% formic acid, and 0.5N sodium hydroxide) for 5 days (mixed decalcifying solution was exchanges once a day for 5 days). After the dexalcification, the femur was embedded in paraffin, sectioned (3˜4 μm) and stained with hematoxylin-eosin stain.
TBV was calculated using automated image analysis (analySIS Image Processing; SIS, Germany) under magnification of ×200 in the uniform area of trochlea epiphyseal regions (growth plate regions were excluded) of prepared histological specimens. TBV was calculated as percentage (%) levels.
The changes of TBV compared to that of vehicle control are calculated as following Equation 1 to help the understanding of the efficacy of test substances. Percentage changes=[((TBV of a−TBV of b)/TBV of b)×100] Equation 1

[2] = test system: mouse models of ovalbumin-induced asthma; assay: Therapeutic effect in mouse model of asthma induced with ovalbumin (lung weight, total leukocytes in blood and BALF); type: in vivo, C57BL/6 mice; conditions: for Changes on the lung weight, Absolute: 200 mg/kg oral once a day from sensitization, vehicle control 0.134 ± 0.012, sham 0.110 ± 0.009; for Changes on the lung weight, Relative (%) / Total leukocytes in peripheral blood (×10^3/1 mm^3) / Total leukocytes in BALF (×10^5/1 ml): 200 mg/kg oral once a day; for Changes on the lung weight, Relative (%): % of body weight, vehicle control 0.780 ± 0.103, sham 0.694 ± 0.049; for Total leukocytes in peripheral blood (×10^3/1 mm^3): vehicle control 14.49 ± 0.88, sham 10.27 ± 0.93; for Total leukocytes in BALF (×10^5/1 ml): vehicle control 75.68 ± 4.67, sham 51.75 ± 2.15
Description: The benzamidine compounds were assated for therapeutic effect on allergic inflammation in mouse models of ovalbumin-induced asthma. Starting on the day of immunization the benzamidine compounds were dosed for 17 consecutive days. The experimental animals were re-exposed to ovalbumin 14 days after the sensitization and then sacrificed 3 days after the re-exposure. Changes in lung weight, cellular components of peripheral blood and bronchoalveolar lavage fluid, and lung histopathology were observed.
A total of 110 female C57BL/6 mice (7-week-old, SLC, Japan) were adapted to a laboratory environment for 6 days before being used in earnest experiments. While being housed at a densirt of five in a plastic cage, the experimental animals were breed in a breeding room with controlled temperature (20-25° C.) and humidity (30-35%). Under light-dark cycles of 12 hours, mice were allowed to have free access to feedstuff and tap water. While asthma was induced in 100 mice by ovalbumin, 10 mice were used as a non-treated group.
200 mg of benzamidine compounds (Methansulfonic acid or Hydrochloride) were completely dissolved in 5 ml of sterilized distilled water. The benzamidine compound in the solutions was orally administered at doses of 200 mg per kg of body weight once a day from the day of the sensitization with ovalbumin. The control group was administered with equal volumes of sterilized distilled water in the same manner.
A solution of 200 μg of ovalbumin (Grade VI; Sigma, st. Louis, Mo., USA) and 180 mg of aluminium hydroxide (Al(OH)3, dried powder gel; Aldrich, Milwaukee, USA) in 4 ml of physiological saline was allowed to stand at 4° C. overnight and was administered to the experimental animals (200 μl, abdominal injection) for sensitization. As for the non-treated group, a solution of only aluminium hydroxide in saline was injected. 15 days after sensitization, a 1.5% ovalbumin solution was sprayed in air using a nebulizer, followed by exposing the experimental animals to the spray for 10 min to induce asthma therein. The non-treated group was exposed only to saline in the same manner. All the experimental animals were sacrificed 3 days after the exposure.
On the final day of experiment, the lungs were separated form adjacent organs. The removed lungs were weight among individual animals, the relative weight of the lungs was calculated as a percentage of body weight using the following Equation 3. Relative weight of Lung(%)=(Absolute lung weight/Body weight)×100 Equation 3
On the final day of experiment, all the experimental animals were etherized and underwent laparotomy to expose the abdominal vena cava, from which 1 ml of blood was the taken. Using a hemocytometer, a blood sample was measured for total leukocyte counts in a ×10^3/1 mm^3 units.
On the final day of experiment, secretions present in bronchi and alveola were examined for cyrological constitution. After veing etherized, the experimental animals were operated to open the cervical region and the thorax. The jugular vein was allowed to bleed, followed by endotracheal intubation. 3 ml of phosphate buffered saline was injected twice through the tube and the thorax was massaged for 30 sec to obtain cell suspension from the lungs. Using a hemocytometer, a […] was measured for total leukocyte counts in a ×10^5/1 ml units.

Cc1nc(-c2ccc(OCCCCCOc3ccc(C(=N)NO)cc3)cc2)cs1 [Example 3, N-hydroxy-4-(5-[4-(2-methyl-1,3-thiazol-4-yl)phenoxy]pentoxy)-benzamidine]
melting point: 139 to 140 °C | inhibition at 1 µM ([1]; 1 μm): 41.4%

CC(C)c1nc(-c2ccc(OCCCCCOc3ccc(C(=N)NO)cc3)cc2)cs1 [Example 5, N-hydroxy-4-(5-[4-(2-isopropyl-1,3-thiazol-4-yl)phenoxy]pentoxy)-benzamidine]
melting point: 95 to 129 °C | inhibition at 1 µM ([1]; 1 μm): 87.5%

N=C(NO)c1ccc(OCCCCCOc2ccc(-c3csc(-c4ccccc4)n3)cc2)cc1 [Example 6, N-hydroxy-4-(5-[4-(2-phenyl-1,3-thiazol-4-yl)phenoxy]pentoxy)-benzamidine]
melting point: 133 to 141 °C

Cc1nc(-c2ccc(OCCCCCOc3ccc(C(=N)NO)cc3)cc2)c(C)s1 [Example 10, N-hydroxy-4-(5-[4-(2,5-dimethyl-1,3-thiazol-4-yl)phenoxy]pentoxy)-benzamidine]
melting point: 128 to 133 °C | inhibition at 1 µM ([1]; 1 μm): 1.8%

Cc1sc(-c2ccccc2)nc1-c1ccc(OCCCCCOc2ccc(C(=N)NO)cc2)cc1 [Example 12, N-hydroxy-4-(5-[4-(5-methyl-2-phenyl-1,3-thiazol-4-yl)phenoxy]pentoxy)-benzamidine]
melting point: 124 to 130 °C

CCc1nc(-c2ccc(OCCCCCOc3ccc(C(=N)NO)cc3)cc2)c(CC)s1 [Example 18, N-hydroxy-4-(5-[4-(2,5-diethyl-1,3-thiazol-4-yl)phenoxy]pentoxy)-benzamidine]
melting point: 121 to 127 °C | inhibition at 1 µM ([1]; 1 μm): 24.8%

CCCNc1nc(-c2ccc(OCCCCCOc3ccc(C(=N)NO)cc3)cc2)c(CC2CCCC2)s1 [Example 111, N-hydroxy-4-(5-[4-(5-cyclopentylmethyl-2-propylamino-1,3-thiazol-4-yl)phenoxy]pentoxy)-benzamidine]
change in vivo at 50 mg/kg (ovariectomized ddY mouse): 69.3% | inhibition at 1 µM ([1]; 1 m): 99.5%

CCCCc1sc(N(C)Cc2cccnc2)nc1-c1ccc(OCCCCCOc2ccc(C(=N)NO)cc2)cc1 [Example 145, N-hydroxy-4-(5-[4-(5-butyl-2-(methyl-(pyridin-3-yl-methyl)amino)-1,3-thiazol-4-yl)phenoxy]pentoxy)-benzamidine]
change in vivo at 50 mg/kg (ovariectomized ddY mouse): 91.7% | inhibition at 1 µM ([1]; 1 m): 96.2%

CCCCc1sc(N(C)C)nc1-c1ccc(OCCCCCOc2ccc(C(=N)NO)cc2)cc1 [Example 152, N-hydroxy-4-(5-[4-(5-butyl-2-dimethylamino-1,3-thiazol-4-yl)phenoxy]pentoxy)-benzamidine]
change in vivo at 50 mg/kg (ovariectomized ddY mouse): 71.5% | inhibition at 1 µM ([1]; 1 m): 83.8%

Cc1sc(N2CCOCC2)nc1-c1ccc(OCCCCCOc2ccc(C(=N)NO)cc2)cc1 [Example 165, N-hydroxy-4-(5-[4-(5-methyl-2-morpholino-1,3-thiazol-4-yl)phenoxy]pentoxy)-benzamidine]
change in vivo at 50 mg/kg (ovariectomized ddY mouse): 37.5% | inhibition at 1 µM ([1]; 1 m): 66.9%

N=C(NO)c1ccc(OCCCCCOc2ccc(-c3nc(N4CCCCC4)sc3CC3CCCC3)cc2)cc1 [Example 167, N-hydroxy-4-(5-[4-(5-cyclopentylmethyl-2-piperdino-1,3-thiazol-4-yl)phenoxy]pentoxy)-benzamidine]
Changes on TBV (% changes vs vehicle control) (ovariectomized ddY mouse): 55.2% | % inhibitory activity on osteoclastogenesis [1]: 99.0%

N=C(NO)c1ccc(OCCCCCOc2ccc(-c3nc(N4CCOCC4)sc3CC3CCCC3)cc2)cc1 [Example 168, N-hydroxy-4-(5-[4-(5-cyclopentylmethyl-2-morpholino-1,3-thiazol-4-yl)phenoxy]pentoxy)-benzamidine]
change in vivo at 50 mg/kg (ovariectomized ddY mouse): 56.6% | inhibition at 1 µM ([1]; 1 m): 87%

CC(C)c1sc(N2CCOCC2)nc1-c1ccc(OCCCCCOc2ccc(C(=N)NO)cc2)cc1 [Example 169, N-hydroxy-4-(5-[4-(5-isopropyl-2-morpholino-1,3-thiazol-4-yl)phenoxy]pentoxy)-benzamidine]
change in vivo at 50 mg/kg (ovariectomized ddY mouse): 186% | Changes on the lung weight, Absolute [2]: 0.113 ± 0.003 g | Changes on the lung weight, Relative (%) [2]: 0.696 ± 0.032 % | Total leukocytes in peripheral blood (×10^3/1 mm^3) [2]: 13.20 ± 2.22 ×10^3/1 mm^3 | Total leukocytes in BALF (×10^5/1 ml) [2]: 72.25 ± 7.95 ×10^5/1 ml | inhibition at 1 µM ([1]; 1 m): 83.3%

Cc1nc(-c2ccc(OCCCCCNc3ccc(C(=N)NO)cc3)cc2)c(C(C)C)s1 [Example 177, N-hydroxy-4-(5-[4-(5-isopropyl-2-methyl-1,3-thiazol-4-yl)phenoxy]-pentylamino)-benzamidine]
change in vivo at 50 mg/kg (ovariectomized ddY mouse): 88.7% | inhibition at 1 µM ([1]; 1 m): 96.1%

Cc1nc(-c2ccc(OCC=CCOc3ccc(C(=N)NO)cc3)cc2)c(C(C)C)s1 [Example 184, N-hydroxy-4-(4-[4-(5-isopropyl-2-methyl-1,3-thiazol-4-yl)-phenoxy]-2-butenyloxy)-benzamidine]
change in vivo at 50 mg/kg (ovariectomized ddY mouse): 147% | inhibition at 1 µM ([1]; 1 m): 74.5%

Cc1nc(-c2ccc(OCc3ccc(COc4ccc(C(=N)NO)cc4)cc3)cc2)c(C(C)C)s1 [Example 185, N-hydroxy-4-(4-[4-(5-isopropyl-2-methyl-1,3-thiazol-4-yl)-phenoxymethyl]-benzyloxy)-benzamidine]
change in vivo at 50 mg/kg (ovariectomized ddY mouse): 152% | Changes on the lung weight, Absolute [2]: 0.116 ± 0.003 g | Changes on the lung weight, Relative (%) [2]: 0.720 ± 0.061% | Total leukocytes in peripheral blood (×10^3/1 mm^3) [2]: 11.90 ± 1.45 # ×10^3/1 mm^3 | Total leukocytes in BALF (×10^5/1 ml) [2]: 66.47 ± 7.41 # ×10^5/1 ml | inhibition at 1 µM ([1]; 1 m): 89.4%

Cc1nc(-c2ccc(OCCCCCOc3ccc(C(=N)NO)c(F)c3)cc2)c(C(C)C)s1 [Example 187, N-hydroxy-2-fluoro-4-(5-[4-(5-isopropyl-2-methyl-1,3-thiazol-4-yl)-phenoxy]-pentoxy)-benzamidine]
change in vivo at 50 mg/kg (ovariectomized ddY mouse): 117% | inhibition at 1 µM ([1]; 1 m): 92.5%

Cc1nc(-c2ccc(OCCCCCOc3ccc(C(=N)NO)c(O)c3)cc2)c(C(C)C)s1 [Example 188, 2,N-dihydroxy-4-(5-[4-(5-isopropyl-2-methyl-1,3-thiazol-4-yl)-phenoxy]-pentoxy)-benzamidine]
change in vivo at 50 mg/kg (ovariectomized ddY mouse): 92% | inhibition at 1 µM ([1]; 1 m): 82.6%
